The numbers were not newly measured in patent US4178376A, “Method for inducing rapid therapeutically effective antimalarial levels of certain selected conventional antimalarials” (Interx Research Corporation, priority 1977, dated 1979), which cites them from elsewhere.

The conditions of the data set: water.

Take `CCCCN(CCCC)CCC(O)c1cc(-c2ccc(C(F)(F)F)cc2)nc(-c2ccc(C(F)(F)F)cc2)c1` (centres unmarked) [3-Dibutylamino-1-[2,6-bis(4-trifluoromethylphenyl)-4-pyridyl] propanol]: the aqueous solubility result is on record as “approximately 7.0 mg per liter of water”.

With `CCCCN(CCCC)CC(O)c1cc(-c2ccc(Cl)c(Cl)c2)nc2c(Cl)cc(Cl)cc12` (centres unmarked) [Compound I], the aqueous solubility result was “approximately 1.0 mg per liter of water”.
